From US10479780B2, “Aminopyrazole derivatives” (Chugai Seiyaku Kabushiki Kaisha, priority 2015, dated 2019)
pIC50: −log10 of the molar value.

Columns and labels:
Type in all cases: biochemical
human Lck enzyme = biological target: T1, human Lck enzyme (Homo sapiens, UniProt P06239); test: Lck enzyme inhibitory activity (time-resolved fluorometry, biotinylated peptide phosphorylation); conditions: read-out: LCK_IC50
T1 construct: purchased Carna Biosciences, Inc. 08-170
In short: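 Readout pairs a europium cryptate-labelled anti-phosphotyrosine antibody with XL665-streptavidin, measured by time-resolved fluorescence. IC50 derived from percent inhibition against untreated controls.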

human Src enzyme = biological target: T2, human Src enzyme (Homo sapiens, UniProt P12931); test: Src enzyme inhibitory activity (time-resolved fluorometry, biotinylated peptide phosphorylation); conditions: read-out: SRC_IC50
T2 construct: purchased Carna Biosciences, Inc. 08-173
In short: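 Compounds were tested for blocking tyrosine phosphorylation of a biotinylated peptide substrate by recombinant human Src. Phosphorylated product was quantified by time-resolved fluorometry using europium cryptate and XL665 conjugates, and IC50 was calculated against the compound-free control.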

human Yes1 enzyme = biological target: T3, human Yes1 enzyme (Homo sapiens, UniProt P07947); test: Yes1 enzyme inhibitory activity (time-resolved fluorometry, biotinylated peptide phosphorylation); conditions: read-out: YES_IC50
T3 construct: made in house
In short: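 Inhibition was expressed against a compound-free control to give IC50, using TR-FRET read-out (Eu-cryptate anti-pTyr antibody, streptavidin-XL665).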

T3 sequence (P07947 whole entry): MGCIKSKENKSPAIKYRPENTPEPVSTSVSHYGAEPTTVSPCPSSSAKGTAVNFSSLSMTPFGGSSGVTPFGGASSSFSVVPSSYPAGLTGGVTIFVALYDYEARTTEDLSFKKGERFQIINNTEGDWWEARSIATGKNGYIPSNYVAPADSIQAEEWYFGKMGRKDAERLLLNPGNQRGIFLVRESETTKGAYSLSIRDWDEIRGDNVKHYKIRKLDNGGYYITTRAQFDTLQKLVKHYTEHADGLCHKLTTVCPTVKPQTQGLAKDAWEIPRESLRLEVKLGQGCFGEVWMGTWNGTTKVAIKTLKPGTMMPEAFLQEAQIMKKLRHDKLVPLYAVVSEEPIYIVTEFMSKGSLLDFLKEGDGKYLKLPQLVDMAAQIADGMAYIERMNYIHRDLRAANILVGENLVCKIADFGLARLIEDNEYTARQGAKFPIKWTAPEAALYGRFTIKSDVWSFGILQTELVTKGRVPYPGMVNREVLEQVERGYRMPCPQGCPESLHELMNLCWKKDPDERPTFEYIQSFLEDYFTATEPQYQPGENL
T1 sequence (P06239 whole entry): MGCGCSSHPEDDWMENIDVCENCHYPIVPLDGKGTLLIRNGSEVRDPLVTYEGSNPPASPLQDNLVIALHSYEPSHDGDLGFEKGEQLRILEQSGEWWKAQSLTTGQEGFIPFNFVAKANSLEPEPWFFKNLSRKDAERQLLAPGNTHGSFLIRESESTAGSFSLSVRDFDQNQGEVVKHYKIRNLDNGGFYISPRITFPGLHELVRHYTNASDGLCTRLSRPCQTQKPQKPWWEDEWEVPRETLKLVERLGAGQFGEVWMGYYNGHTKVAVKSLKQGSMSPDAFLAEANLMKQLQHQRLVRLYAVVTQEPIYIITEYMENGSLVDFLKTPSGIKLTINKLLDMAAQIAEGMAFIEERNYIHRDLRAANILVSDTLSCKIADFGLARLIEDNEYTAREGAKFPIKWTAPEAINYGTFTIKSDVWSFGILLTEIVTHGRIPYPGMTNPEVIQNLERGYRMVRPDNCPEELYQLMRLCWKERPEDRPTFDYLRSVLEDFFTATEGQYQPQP
T2 sequence (P12931 whole entry): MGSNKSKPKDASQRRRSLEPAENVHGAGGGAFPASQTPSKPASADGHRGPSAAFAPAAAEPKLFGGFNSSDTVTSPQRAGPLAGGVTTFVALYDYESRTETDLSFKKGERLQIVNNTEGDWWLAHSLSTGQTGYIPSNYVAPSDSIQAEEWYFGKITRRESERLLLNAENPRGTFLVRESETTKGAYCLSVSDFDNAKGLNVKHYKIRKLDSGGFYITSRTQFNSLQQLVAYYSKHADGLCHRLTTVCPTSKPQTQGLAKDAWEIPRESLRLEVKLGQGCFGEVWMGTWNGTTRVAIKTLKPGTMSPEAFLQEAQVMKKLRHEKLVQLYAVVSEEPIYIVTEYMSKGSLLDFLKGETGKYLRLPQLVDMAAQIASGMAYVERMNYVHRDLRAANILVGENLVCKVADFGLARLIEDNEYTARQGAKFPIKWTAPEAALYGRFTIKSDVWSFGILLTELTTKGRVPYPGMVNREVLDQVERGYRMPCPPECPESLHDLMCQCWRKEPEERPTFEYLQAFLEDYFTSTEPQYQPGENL

Compound	pIC50 (human Lck enzyme)	pIC50 (human Src enzyme)	pIC50 (human Yes1 enzyme)
CC(C)N1CCC(c2cc3[nH]c(C(=O)c4cnn(-c5ccc(Oc6cccc(F)c6F)cc5F)c4N)cc3cc2F)CC1 [Example 5-1-011, [5-amino-1-[4-(2,3-difluorophenoxy)-2-fluorophenyl]pyrazol-4-yl]-[5-fluoro-6-(1-propan-2-ylpiperidin-4-yl)-1H-indol-2-yl]methanone]	8.59	7.85	9.07
Cc1cc(-n2ncc(C(=O)c3cc4cc(C)c(C5CCN(C(C)C)CC5)cc4[nH]3)c2N)ccc1Oc1ccccc1F [Example 5-1-012, [5-amino-1-[4-(2-fluorophenoxy)-3-methylphenyl]pyrazol-4-yl]-[5-methyl-6-(1-propan-2-ylpiperidin-4-yl)-1H-indd-2-yl] methanone]	7.64	6.51	8.60
CC(C)N1CCC(c2cc3[nH]c(C(=O)c4cnn(-c5ccc(Oc6cccc(F)c6F)cc5)c4N)cc3cc2F)CC1 [Example 5-1-013, [5-amino-1-[4-(2,3-difluorophenoxy)phenyl]pyrazol-4-yl]-[5-fluoro-6-(1-propan-2-ylpiperidin-4-yl)-1H-indol-2-yl]methanone]	8.60	7.52	8.80
CC(C)N1CCC(c2cc3[nH]c(C(=O)c4cnn(-c5ccc(Oc6cccc(F)c6)cc5)c4N)cc3cc2F)CC1 [Example 5-1-014, [5-amino-1-[4-(3-fluorophenoxy)phenyl]pyrazol-4-yl]-[5-fluoro-6-(1-propan-2-ylpiperidin-4-yl)-1H-indol-2-yl]methanone]	8.52	7.37	8.62
CC(C)N1CCC(c2cc3[nH]c(C(=O)c4cnn(-c5ccc(Oc6ccccc6Cl)cc5)c4N)cc3cc2F)CC1 [Example 5-1-015, [5-amino-1-[4-(2-chlorophenoxy)phenyl]pyrazol-4-yl]-[5-fluoro-6-(1-propan-2-ylpiperidin-4-yl)-1H-indol-2-yl]methanone]	8.66	7.64	8.82
CS(=O)(=O)Nc1cc2[nH]c(C(=O)c3cnn(-c4ccc(Oc5cccc(F)c5F)cc4Cl)c3N)cc2cc1F [Example 5-1-016, N-[2-[5-amino-1-[2-chloro-4-(2,3-difluorophenoxy)phenyl]pyrazole-4-carbonyl]-5-fluoro-1H-indol-6-yl]methanesulfonamide]	7.60	7.03	9.14
Cc1cc(-n2ncc(C(=O)c3cc4cc(F)c(NS(C)(=O)=O)cc4[nH]3)c2N)ccc1Oc1ccccc1F [Example 5-1-017, N-[2-[5-amino-1-[4-(2-fluorophenoxy)-3-methylphenyl]pyrazole-4-carbonyl]-5-fluoro-1H-indol-6-yl]methanesulfonamide]	6.20	5.62	8.35
CS(=O)(=O)Nc1cc2[nH]c(C(=O)c3cnn(-c4ccc(Oc5ccccc5F)cc4Cl)c3N)cc2cc1F [Example 5-1-018, N-[2-[5-amino-1-[2-chloro-4-(2-fluorophenoxy)phenyl]pyrazole-4-carbonyl]-5-fluoro-1H-indol-6-yl]methanesulfonamide]	7.48	6.96	8.66
Nc1c(C(=O)c2cc3cc(F)c(NS(=O)(=O)C4CC4)cc3[nH]2)cnn1-c1c(F)cc(Oc2ccccc2F)cc1F [Example 5-1-019, N-[2-[5-amino-1-[2,6-difluoro-4-(2-fluorophenoxy)phenyl]pyrazole-4-carbonyl]-5-fluoro-1H-indol-6-yl] cyclopropanesulfonamide]	7.27	6.92	8.55
Cc1cc(Oc2ccccc2F)ncc1-n1ncc(C(=O)c2cc3cc(F)c(NS(=O)(=O)NC4CC4)cc3[nH]2)c1N [Example 5-1-020, [5-amino-1-[6-(2-fluorophenoxy)-4-methylpyridin-3-yl]pyrazol-4-yl]-[6-(cyclopropylsulfamoylamino)-5-fluoro-1H-indol-2-yl]methanone]	7.29	6.72	8.24
Cc1cc(Oc2ccccc2F)ncc1-n1ncc(C(=O)c2cc3cc(F)c(NS(=O)(=O)NC(C)C)cc3[nH]2)c1N [Example 5-1-021, [5-amino-1-[6-(2-fluorophenoxy)-4-methylpyridin-3-yl]pyrazol-4-yl]-[5-fluoro-6-(propan-2-ylsulfamoylamino)-1H-indol-2-yl] methanone]	7.14	6.51	8.01
CS(=O)(=O)Nc1cc2[nH]c(C(=O)c3cnn(-c4c(F)cc(Oc5ccccc5F)cc4F)c3N)cc2cc1F [Example 5-1-022, N-[2-[5-amino-1-[2,6-difluoro-4-(2-fluorophenoxy)phenyl]pyrazole-4-carbonyl]-5-fluoro-1H-indol-6-yl]methanesulfonamide]	8.00	7.21	8.70
CS(=O)(=O)Nc1cc2[nH]c(C(=O)c3cnn(-c4c(Cl)cc(Oc5ccccc5F)cc4Cl)c3N)cc2cc1F [Example 5-1-023, N-[2-[5-amino-1-[2,6-dichloro-4-(2-fluorophenoxy)phenyl]pyrazole-4-carbonyl]-5-fluoro-1H-indol-6-yl]methanesulfonamide]	7.19	6.62	7.80
CS(=O)(=O)Nc1cc2[nH]c(C(=O)c3cnn(-c4c(Cl)cc(Oc5cccc(F)c5F)cc4Cl)c3N)cc2cc1F [Example 5-1-024, N-[2-[5-amino-1-[2,6-dichloro-4-(2,3-difluorophenoxy)phenyl]pyrazole-4-carbonyl]-5-fluoro-1H-indol-6-yl]methanesulfonamide]	7.08	6.47	7.59
Nc1c(C(=O)c2cc3cc(F)c(NS(=O)(=O)C4CC4)cc3[nH]2)cnn1-c1c(Cl)cc(Oc2ccccc2F)cc1Cl [Example 5-1-025, N-[2-[5-amino-1-[2,6-dichloro-4-(2-fluorophenoxy)phenyl]pyrazole-4-carbonyl]-5-fluoro-1H-indol-6-yl]cyclopropanesulfonamide]	6.57	6.14	7.70
Nc1c(C(=O)c2cc3cc(F)c(NS(=O)(=O)C4CC4)cc3[nH]2)cnn1-c1c(Cl)cc(Oc2cccc(F)c2F)cc1Cl [Example 5-1-026, N-[2-[5-amino-1-[2,6-dichloro-4-(2,3-difluorophenoxy)phenyl]pyrazole-4-carbonyl]-5-fluoro-1H-indol-6-yl] cyclopropanesulfonamide]	6.41	6.18	7.19
Nc1c(C(=O)c2cc3cc(F)c(NS(=O)(=O)CCCF)cc3[nH]2)cnn1-c1c(F)cc(Oc2ccccc2F)cc1F [Example 5-1-027, N-[2-[5-amino-1-[2,6-difluoro-4-(2-fluorophenoxy)phenyl]pyrazole-4-carbonyl]-5-fluoro-1H-indol-6-yl]-3-fluoropropane-1-sulfonamide]	7.70	7.19	9.08
Nc1c(C(=O)c2cc3cc(F)c(NS(=O)(=O)CCCF)cc3[nH]2)cnn1-c1c(Cl)cc(Oc2cccc(F)c2F)cc1Cl [Example 5-1-028, N-[2-[5-amino-1-[2,6-dichloro-4-(2,3-difluorophenoxy)phenyl]pyrazole-4-carbonyl]-5-fluoro-1H-indol-6-yl]-3-fluoropropane-1-sulfanamide]	6.70	6.46	7.89
